One data set addresses PSMα3 fibrils (Staphylococcus aureus, UniProt A9JX07). In words: LC-MS degradation of amoxicillin and penicillin G with PSMα3 fibrils or buffer. The note with it: for Degraded Penicillin G (PSMa3) (percentage of LC peaks, hydrolyzed product) / Penicillin G (PSMa3) (percentage of LC peaks, parent compound) / Degraded Penicillin G (percentage of LC peaks, hydrolyzed product) / Penicillin G (percentage of LC peaks, parent compound): Hepes 50 mM pH 7.4, penicillin G 40 µM, LC-MS; for Degraded Penicillin G (percentage of LC peaks, hydrolyzed product) / Penicillin G (percentage of LC peaks, parent compound): buffer control. The class given is biochemical. As for the experimental part:
Amoxicillin or Penicillin solutions were dissolved in Hepes buffer (50 mM, pH 7.4) in concentration of 50 µM. PSMα3 solution in concentration of 1.54 mM was dissolved in DIW and Hepes buffer was added to the final concentration of 50 mM. The antibiotics’ solutions and preincubated PSMα3 solutions were mixed to final PSMα3 […] 180 µL organic solvent to stop the reaction (acetonitrile for Amoxicillin, methanol in the case of Penicillin). The samples were collected and injected sequentially into the LC-MS analysis.
Waters ACQUITY UPLC I-Class PLUS System coupled with high-resolution Thermo Orbitrap Exploris 240 mass-spectrometer were used for analysis of Amoxicillin and Penicillin-G over time. 1 µL of each sample was injected into the reverse-phase Acquity UPLC BEH C18 1.7 µm, 2.1 × 50 mm column (Waters) and run under a gradient program (Table S2 for Amoxicillin, Table S3 for Penicillin-G). The samples were ionized using soft electrospray ionization in positive mode and detected in a full scan mode in range from 60 to 900 m/z with a resolution of 240,000 Full Width at Half Maximum. MS was tuned according to the manufacture recommendations. Relative abundance of the intact/degraded compounds was calculated by peak area of the extracted ion chromatogram: for Amoxicillin 366.1–366.12, and degraded-Amoxicillin 384.1–384.13 m/z, Penicillin-G 335.1–335.12, for degraded-Penicillin-G 353.1–353.12, for (Figs. S13 and S14, respectively).

Data set [1] in a line: Nitrocefin hydrolysis kinetics (absorbance of degraded nitrocefin at 480 nm; initial rates V0, Michaelis-Menten fit). The class given is biochemical. The note with it: peptide 170 µM; for nitrocefin substrate degradation after two hours: initial nitrocefin 107 µM (Fig. 4b). As for the experimental part: Nitrocefin, a β-lactam widely used as a surrogate substrate of Penicillin in β-lactamase activity assay, was used as a substrate. NC degradation was monitored for 2 h. Nitrocefin stock solution was dissolved in acetonitrile (20 mM) and then diluted with Hepes buffer (50 mM, pH 7.4) to nitrocefin concentration of 360 µM (further dilutions to lower concentrations were made with the 360 µM NC stock). All nitrocefin samples were kept on ice in cold conditions and any further dilution or mixing was performed in ice-cold conditions to avoid self-hydrolysis background reaction. […] Immediately after mixing the samples, the plate was transferred to 20̊ °C pre-cooled plate reader (Multiskan GO, Thermo Scientific, Waltham, MA) and shaken slowly for 10 s. Then, the absorbance of degraded nitrocefin was measured for 2 h at interval of 20 s at λ = 480 nm. Initial production rates (V0) were calculated by slope of the initial linear range of degraded-nitrocefin production at the first 15 min. The reported results are and average of at least five separate measurements (the exact number of repeats, N, is reported next to the values). Each experiment also included blank samples of nitrocefin substrate diluted with buffer instead of PSMα. […] The initial rate calculations were performed while also subtracting the self-degradation of the substrate, to ensure that this product absorbance is a result of PSMα presence.
The initial rates of degraded-nitrocefin production were calculated from the slopes of the first 15 min of measurement as reported above. The initial rates (V0) were fitted using non-linear regression applied with the solver function in excel, either to Michalis–Menten equation V=Vmax.[S]/(KM+S) Where Vmax. Stands for maximal reaction rate, KM stands for Michalis–Menten constant, [S] stands for the substrate molar concentration. Each initial rate value was presented as average ± SEM. The kinetic parameters were calculated by fitting the data to MM model using non-linear regression, and the confidence intervals for each parameter were calculated accordingly.

Where no end group is shown, it is not given here.

Sequence of PSMα3 fibrils (A9JX07 whole entry, looked up): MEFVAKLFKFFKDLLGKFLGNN

For the compound `CC1(C)S[C@@H]2[C@H](NC(=O)Cc3ccccc3)C(=O)N2[C@H]1C(=O)O` [Penicillin G], the “Degraded Penicillin G (PSMa3) (percentage of LC peaks, hydrolyzed product)” value on PSMα3 fibrils (PSMα3 fibrils 308 µM, 0h) stood at 14.1576%; at PSMα3 fibrils (PSMα3 fibrils 308 µM, 2h), 11.4487%; at PSMα3 fibrils (PSMα3 fibrils 308 µM, 4h) it was 13.5281%; on PSMα3 fibrils (PSMα3 fibrils 308 µM, 8h), 13.7177%; on PSMα3 fibrils (PSMα3 fibrils 308 µM, 12h) it was 18.21%; at PSMα3 fibrils (PSMα3 fibrils 308 µM, 24h), 37.9475%. Further, the “Degraded Penicillin G (PSMa3) (percentage of LC peaks, hydrolyzed product)” value at PSMα3 fibrils (PSMα3 fibrils 308 µM, 48h) was determined as 86.3947%; at PSMα3 fibrils (PSMα3 fibrils 308 µM, 60h), 96.085%; on PSMα3 fibrils (PSMα3 fibrils 308 µM, 72h), 99.5055%. In addition, the “Penicillin G (PSMa3) (percentage of LC peaks, parent compound)” value on PSMα3 fibrils (PSMα3 fibrils 308 µM, 0h) is 85.8424%; at PSMα3 fibrils (PSMα3 fibrils 308 µM, 2h), 88.5513%; on PSMα3 fibrils (PSMα3 fibrils 308 µM, 4h), 86.4719%; at PSMα3 fibrils (PSMα3 fibrils 308 µM, 8h) it was 86.2823%; at PSMα3 fibrils (PSMα3 fibrils 308 µM, 12h), 81.79%; at PSMα3 fibrils (PSMα3 fibrils 308 µM, 24h) it was 62.0525%. Besides, the “Penicillin G (PSMa3) (percentage of LC peaks, parent compound)” value is recorded as 13.6053% at PSMα3 fibrils (PSMα3 fibrils 308 µM, 48h); 3.915% on PSMα3 fibrils (PSMα3 fibrils 308 µM, 60h); 0.4945% at PSMα3 fibrils (PSMα3 fibrils 308 µM, 72h). For the same compound, at PSMα3 fibrils (antibiotic 40 µM, PSMα3 fibrils 308 µM, Hepes 50 mM pH 7.4, LC-MS (Fig. 6)), the “hydrolysis by PSMα3 fibrils versus spontaneous degradation” value was “significantly higher extent compared to the spontaneous degradation”. Also, the “Degraded Penicillin G (percentage of LC peaks, hydrolyzed product)” value on PSMα3 fibrils (0h) stood at 11.7847%; on PSMα3 fibrils (2h), 11.7612%; at PSMα3 fibrils (4h) it was 11.6984%; on PSMα3 fibrils (8h) it was 11.6907%; at PSMα3 fibrils (12h) it was 15.4738%; on PSMα3 fibrils (24h), 23.4015%. For the same compound, the “Degraded Penicillin G (percentage of LC peaks, hydrolyzed product)” value at PSMα3 fibrils (48h) is 37.4339%; on PSMα3 fibrils (60h) it was 42.5642%; at PSMα3 fibrils (72h), 42.8604%. The “Penicillin G (percentage of LC peaks, parent compound)” value on PSMα3 fibrils (0h) was 88.2153%; on PSMα3 fibrils (2h), 88.2388%; at PSMα3 fibrils (4h), 88.3016%; on PSMα3 fibrils (8h) it was 88.3093%; on PSMα3 fibrils (12h) it was 84.5262%; at PSMα3 fibrils (24h), 76.5985%. Moreover, the figures for the “Penicillin G (percentage of LC peaks, parent compound)” value on PSMα3 fibrils (48h), at PSMα3 fibrils (60h) and at PSMα3 fibrils (72h) were 62.5661%, 57.4358% and 57.1396%, respectively.

With `CSCC[C@H](N)C(=O)N[C@@H](CCC(=O)O)C(=O)N[C@@H](Cc1ccccc1)C(=O)N[C@H](C(=O)N[C@@H](C)C(=O)N[C@@H](CCCCN)C(=O)N[C@@H](CC(C)C)C(=O)N[C@@H](Cc1ccccc1)C(=O)N[C@@H](CCCCN)C(=O)N[C@@H](Cc1ccccc1)C(=O)N[C@@H](Cc1ccccc1)C(=O)N[C@@H](CCCCN)C(=O)N[C@@H](CC(=O)O)C(=O)N[C@@H](CC(C)C)C(=O)N[C@@H](CC(C)C)C(=O)NCC(=O)N[C@@H](C)C(=O)N[C@@H](Cc1ccccc1)C(=O)N[C@@H](CC(C)C)C(=O)NCC(=O)N[C@@H](CC(N)=O)C(=O)N[C@@H](CC(N)=O)C(=O)O)C(C)C` [α3-K17A], the “nitrocefin substrate degradation after two hours” value (shortened to “nitrocefin substrate degradation”) in data set [1] is “minimal degradation”.

With `CSCC[C@H](NC(C)=O)C(=O)N[C@@H](CCC(=O)O)C(=O)N[C@@H](Cc1ccccc1)C(=O)N[C@H](C(=O)N[C@@H](C)C(=O)N[C@@H](CCCCN)C(=O)N[C@@H](CC(C)C)C(=O)N[C@@H](Cc1ccccc1)C(=O)N[C@@H](CCCCN)C(=O)N[C@@H](Cc1ccccc1)C(=O)N[C@@H](Cc1ccccc1)C(=O)N[C@@H](CCCCN)C(=O)N[C@@H](CC(=O)O)C(=O)N[C@@H](CC(C)C)C(=O)N[C@@H](CC(C)C)C(=O)NCC(=O)N[C@@H](CCCCN)C(=O)N[C@@H](Cc1ccccc1)C(=O)N[C@@H](CC(C)C)C(=O)NCC(=O)N[C@@H](CC(N)=O)C(=O)N[C@@H](CC(N)=O)C(=O)O)C(C)C` [α3-N.Ac.], the “nitrocefin substrate degradation” value in data set [1] was “minimal degradation”.

In the case of MEFVAALFKFFKDLLGKFLGNN [α3-K6A], the “nitrocefin substrate degradation” value in data set [1] was “minimal degradation”.

As to MEFVAKLFAFFKDLLGKFLGNN [α3-K9A], the “nitrocefin substrate degradation” value in data set [1] was “minimal degradation”.

Regarding MEFVAKLFKFFADLLGKFLGNN [α3-K12A], the “nitrocefin substrate degradation” value in data set [1] is 70%.

Take MEFVAKLFKPFKDLLGKFLGNN [α3-F10P]: the “initial rate of nitrocefin degradation reaction (V0)” value in data set [1] (initial nitrocefin 107 µM, Hepes 50 mM pH 7.4, 20 °C, first 15 min (Fig. 3f)) is “lower than 15 µM/h”.
